Data taken from BindingDB's records for doi:10.1016/j.chembiol.2006.05.015 (The Scripps Research Institute, 2006).

Columns and labels:
[1] = target: T1, Tyrosine-protein kinase ABL1 [1-999,Q252H] (Homo sapiens, UniProt P00519, Q252H); test: Biochemcial Assay; details: pH 7.5
T1 construct: 1-999
Text: An in vitro kinase assay using dephophorylated conformationally inactive Abl kinase was obtained by treating pure recombinant Abl with Yersinia […] phosphatase from Calbiochem.

[2] = target: T1, Tyrosine-protein kinase ABL1 [1-999,Q252H]; test: Biochemcial Assay; details: pH 7.5; remark: listed apart in the source
Text: An in vitro kinase assay using phosphorylated recombinant human Abl kinase domains to phosphorylate a peptide substrate.

Row | SMILES | IC50 [1] | IC50 [2]
1 | O=C(Nc1ccc(N2CCOCC2)cc1)c1cc2cnc3[nH]ccc3c2s1 [Type I progenitor, 7] | > 5 µM | > 5 µM
2 | Cc1cc(NC(=O)c2cccc(C(F)(F)F)c2)ccc1NC(=O)c1cc2cnc3[nH]ccc3c2s1 [Type II inhibitor, 8] | 0.154 µM | > 5 µM
3 | Cc1ccc(N(C)C(=O)c2cccc(C(F)(F)F)c2)cc1Nc1nccc(-c2cccnc2)n1 [Type II inhibitor, 3] | 1.36 µM | > 5 µM
4 | CC(O)c1cccc(Nc2ncc3cc(-c4c(Cl)cccc4Cl)c(=O)n(C)c3n2)c1 (stereo unspecified) [Type I progenitor, 11] | 0.0058 µM | 0.0057 µM
5 | Cc1cc(N(C)C(=O)c2cccc(C(F)(F)F)c2)ccc1NC(=O)c1cc2cnc3[nH]ccc3c2s1 [Type II inhibitor, 10] | > 5 µM | > 5 µM
6 | O=C(Cc1cccc(C(F)(F)F)c1)Nc1ccc(Oc2ncnc3[nH]ccc23)cc1 [Type II inhibitor, 6] | > 5 µM | > 5 µM
7 | CC(O)c1cccc(Nc2ncc3cc(-c4cc(NC(=O)c5cccc(C(F)(F)F)c5)ccc4Cl)c(=O)n(C)c3n2)c1 (stereo unspecified) [Type II inhibitor, 12] | 0.0272 µM | 0.0196 µM
8 | Cc1ccc(N(C)C(=O)c2cccc(C(F)(F)F)c2)cc1N1Cc2cnc(N)nc2N(C)C1=O [Type II inhibitor, 15] | > 5 µM | > 5 µM
9 | Cc1ccc(NC(=O)c2cccc(C(F)(F)F)c2)cc1Nc1nccc(-c2cccnc2)n1 [Type II inhibitor, 2] | 0.005 µM | 0.152 µM
10 | O=C(Nc1ccc(Oc2ncnc3[nH]ccc23)cc1)Nc1cccc(C(F)(F)F)c1 [Type II inhibitor, 5] | 0.374 µM | > 5 µM
11 | O=[N+]([O-])c1ccc(Oc2ncnc3[nH]ccc23)cc1 [Type I progenitor, 4] | > 5 µM | > 5 µM
12 | Cc1ccc(Cl)cc1Nc1nccc(-c2cccnc2)n1 [Type I progenitor, 1] | > 5 µM | > 5 µM
13 | CC(O)c1cccc(Nc2ncc3cc(-c4cc(N(C)C(=O)c5cccc(C(F)(F)F)c5)ccc4Cl)c(=O)n(C)c3n2)c1 (stereo unspecified) [Type II inhibitor, 13] | 0.0091 µM | 0.15 µM
